Square brackets hold non-standard residues; d marks the D form. Side chains are listed from the residue outwards. Peptide text beside a SMILES is read from it. * marks the point of attachment. Phe(4-NH2) = Nc1ccc(C[C@H](N)C(=O)O)cc1; Tos = Cc1ccc(S(=O)(=O)*)cc1; Boc = CC(C)(C)OC(=O)*; Cam = NC(=O)C*
System: Experimental Autoimmune (or Allergic) Encephalomyelitis (“EAE”)
Test: In vivo evaluation: Experimental Autoimmune Encephalomyelitis (EAE) model
Design: species or system rats or guinea pigs
Settings: treatment began on Day 8; 10 mg/kg to 200 mg/kg, bid, for five days; SC, PO or IP

Compound | active in EAE model (delayed the onset of symptoms, e.g., clinical scores no greater than 2 or slowed body weight loss as compared to the control)
Cc1ccc(S(=O)(=O)N2CCC[C@H]2C(=O)N[C@@H](Cc2ccc(NC(=O)[C@@H](C)NC(=O)OC(C)(C)C)cc2)C(=O)O)cc1 [Example 5, N-(Toluene-4-sulfonyl)-L-prolyl-4-[(N-tert-butoxylcarbonyl-D-alanyl)amino]-L-phenylalanine] (Tos-Pro-[Phe(4-NH2)]([dA-Boc])-OH) | active
Cc1ccc(S(=O)(=O)N2CCC[C@H]2C(=O)N[C@@H](Cc2ccc(-c3ccccc3C(=O)O)cc2)C(=O)O)cc1 [Example 12, N-(Toluene4-sulfonyl)-L-prolyl-4-[2-(carboxy)phenyl]-L-phenylalanine] | active
Cc1ccc(S(=O)(=O)N2CCC[C@H]2C(=O)N[C@@H](Cc2ccc(OCCCN(C)C)cc2)C(=O)O)cc1 [Example 18, N-(Toluene-4-sulfonyl)-L-prolyl-4-[3-(N,N-dimethylamino)propoxy]-L-phenylalanine] | active
N-(Toluene-4-sulfonyl)-L-(5,5-dimethyl)thiaprolyl-4-[2-(N,N-dimethylamino)ethoxy]-L-phenylalanine [Example 20] | active

System: not given
Test: not given
Settings: not given

melting point | Compound
121 to 124 °C | Cc1ccc(S(=O)(=O)N2CCC[C@H]2C(=O)N[C@@H](Cc2ccc(OCCN(C(C)C)C(C)C)cc2)C(=O)O)cc1 [Example 23, N-(Toluene-4-sulfonyl)-L-prolyl-4-[2-(N,N-diisopropylamino)ethoxy]-L-phenylalanine]
> 200 °C | CN(C)CCCOc1ccc(C[C@H](NC(=O)[C@@H]2CCCN2S(=O)(=O)c2cccs2)C(=O)O)cc1 [Example 24, N-(Thiophene-2-sulfonyl)-L-prolyl-4-[3-(N,N-dimethylamino)propoxy]-L-phenylalanine]
105 to 109 °C | CCN(CC)CCOc1ccc(C[C@H](NC(=O)[C@@H]2CCCN2S(=O)(=O)c2ccc(C)cc2)C(=O)O)cc1 [Example 26, N-(Toluene-4-sulfonyl)-L-prolyl-4-[2-(N,N-diethylamino)ethoxy]-L-phenylalanine]
102 to 106 °C | Cc1ccc(S(=O)(=O)N2CCC[C@H]2C(=O)N[C@@H](Cc2ccc(OCCN3CCCCC3)cc2)C(=O)O)cc1 [Example 46, N-(Toluene-4-sulfonyl)-L-prolyl-4-[2-(piperidin-1-yl)ethoxy]-L-phenylalanine]
70 to 73 °C | Cc1ccc(S(=O)(=O)N2CCC[C@H]2C(=O)N[C@@H](Cc2ccc(OCC(=O)O)cc2)C(=O)O)cc1 [Example 56, N-(Toluene-4-sulfonyl)-L-prolyl-4-[(carboxy)methoxy]-L-phenylalanine]
195 to 196 °C | Cc1ccc(S(=O)(=O)N2CCC[C@H]2C(=O)N[C@@H](Cc2ccc(OCC(N)=O)cc2)C(=O)O)cc1 [Example 58, N-(Toluene-4-sulfonyl)-L-prolyl-4-[(aminocarbonyl)methoxy]-L-phenylalanine] (Tos-Pro-Tyr(Cam)-OH)
88 to 89 °C | Cc1ccc(S(=O)(=O)N2CCC[C@H]2C(=O)N[C@@H](Cc2ccc(OCC(=O)NC(C)(C)C)cc2)C(=O)O)cc1 [Example 59, N-(Toluene-4-sulfonyl)-L-prolyl-4-[(N-tert-butylaminocarbonyl)methoxy]-L-phenylalanine]

The remaining lines, values behind:

Compound | melting point
COC(=O)[C@H](Cc1ccc(OCCN2CCC(O)(c3ccccc3)CC2)cc1)NC(=O)[C@@H]1CCCN1S(=O)(=O)c1ccc(C)cc1 | 122 to 123 °C
COC(=O)[C@H](Cc1ccc(N(CCCN(C)C)S(=O)(=O)C(F)(F)F)cc1)NC(=O)[C@@H]1CCCN1S(=O)(=O)c1ccc(C)cc1 [Example 16, N-(Toluene-4-sulfonyl)-L-prolyl-L-4-{N-[3-(N,N-dimethylamino)propyl]-N-[trifluoromethanesulfonyl]amino}-L-phenylalanine Methyl Ester] | 45 to 55 °C
CN(C)CCCOc1ccc(C[C@H](NC(=O)[C@@H]2CCCN2S(=O)(=O)c2cc(Cl)sc2Cl)C(=O)O)cc1 [Example 27, N-(2,5-Dichlorothiophene-3-sulfonyl)-L-prolyl-4-[3-(N,N-dimethylamino)propoxy]-L-phenylalanine] | > 200 °C
